The term EC50 denotes the midpoint of the concentration-response curve. The term IC50 denotes the concentration that inhibits the measured activity by half.

What all share (type): cell-based
Assay [1] relates to NCI-H460-GFP cells. Nature of the assay: Apoptosis assay (EGFP/FACS) in NCI-H460-GFP cells. As to conditions: Homo sapiens, data not shown, read-out: EC50, induction of apoptosis. As for the experimental part: The following human cell line was used: MDA-MB-231 (ATCC: HTB-26). In addition the following enhanced green fluorescent protein (EGFP)-transfected human cell lines were used: NCI-H460 (ATCC: HTB-177) (H460GFP) and Jurkat (ATCC: TIB-152) (JurkatGFP). NCI-H460 and Jurkat cell lines were cultured in RPMI-1640 tissue culture medium containing 10% (v/v) fetal calf serum, 2 mM glutamine, non-essential amino acids and 50 μg/ml penicillin/streptomycin (Complete medium) (Sigma, Buchs, Switzerland). […]
The assays were performed in commercially available sterile 96-well U-bottom or 24-well flat-bottom tissue culture plates (Falcon). […] For time course experiments with Jurkat cells, the 96-well plates were removed shortly at the indicated time from the incubator, shaken in order to suspend the cells and an aliquot of 200 μl cell suspension was then transferred to a 96-well U-bottom plate and measured immediately on a fluorescence-activated cell sorting (FACS)-Canto II with a high through-put sampler (HTS)-module. […]
The quantification of the relative amount of apoptotic cells within a cell population was determined according to the Reference of Strebel et al., Cytometry 2001, 43(2), Green Fluorescent Protein as Novel Tool to Measure Apoptosis and Necrosis). […] As a readout the relative abundance of the cells belonging to M2 (apoptotic population) were expressed.

Assay [2] has as its system HCC1395. Nature of the assay: Soft agar assay, IC50 of single agents in HCC1395. The following applies: Homo sapiens. How it is done: (§1) Example 5: Determination of Drug Interaction in Cell Lines by Soft Agar Assay
(§2) The combination of BAL101553 with eribulin was tested in various cell lines by soft agar assay. Table 1 and Table 2 present the results according to coefficient of drug interaction based on colony number (Table 1) and total area of colonies (Table 2). In both cases the coefficient of drug interaction is calculated according to the formula described in Zhao et al., J Intercult Ethnopharmacol. 2014, 3(2): 68-72): (combination/untreated)/[(compound1/untreated)×(compound2/untreated)]

Assay [3] has as its system A549. Nature of the assay: Soft agar assay, IC50 of single agents in A549. As to conditions: Homo sapiens. How it is done:
as §1, §2

Assay [4] relates to HCT116. Nature of the assay: Soft agar assay, IC50 of single agents in HCT116. The following applies: Homo sapiens, HCT-116. How it is done: as §1, §2

For the compound `N#CCCNc1nonc1-c1nc2ccccc2n1CC(=O)c1ccc(N)cc1` [BAL27862, 3-(4-{1-[2-(4-Amino-phenyl)-2-oxo-ethyl]-1H-benzoimidazol-2-yl}-furazan-3-ylamino)-propionitrile], the EC50 in assay [1] worked out at 24 nM. Further, the values for the IC50 in assay [2], in assay [3] and in assay [4] were 10 nM, 25 nM and 18 nM, respectively.

Regarding `C=C1C[C@@H]2CC[C@@]34C[C@H]5O[C@H]6[C@@H](O3)[C@H]3O[C@H](CC[C@@H]3O[C@H]6[C@H]5O4)CC(=O)C[C@@H]3[C@@H](OC)[C@@H](C[C@H](O)CN)O[C@H]3C[C@H]3O[C@@H](CC[C@@H]1O2)C[C@@H](C)C3=C.CS(=O)(=O)O` [Eribulin, (2R, 3R, 3aS, 7R, 8aS, 9S, 10aR, 11S, 12R, 13aR, 13bS, 15S, 18S, 21S, 24S, 26R, 28R, 29aS)-2-[(2S)-3-Amino-2-hydroxypropyl]-3-methoxy-26-methyl-20,27-dimethylidenehexacosahydro-11,15:18,21:24,28-triepoxy-7,9-ethano-12,15-methano-9H,15H-furo[3,2-i]furo[2′,3′:5,6]pyrano[4,3-b][1,4]dioxacyclopentacosin-5(4H)-one methanesulfonate (salt)], in assay [1], the concentration for a half-maximal effect (EC50) was 1 nM. Also, the IC50 stood at 0.5 nM in assay [2], 0.25 nM in assay [3] and 1 nM in assay [4].

Source of the values: patent US11419856B2, “Pharmaceutical combinations for use in the treatment of neoplastic diseases” (Basilea Pharmaceutica International AG, priority 2017, dated 2022).
